We go through two compounds from patent US20040010026A1, “(R) 2-(4-amidinophenylaminomethyl)-1-methyl-5-[1-(carboxymethylamino)-1 (pyrrolidinocarbonyl)-ethyl]-benzimidazole, the monohydrochloride thereof, preparation thereof and the use as pharmaceutical composition” (Boehringer Ingelheim Pharma GmbH & Co. KG, priority 2002, published 2004).

Series [1] can be described thus: Solid stress stability of the free base and of the corresponding monohydrochloride. The class given is physicochemical. The settings on record: for decomposition under temperature and relative humidity stress / decomposition under temperature stress / decomposition under light stress: solid, open glass dish; for decomposition under temperature and relative humidity stress: 70° C., approx. 90% relative humidity, 3 days; for decomposition under temperature stress: 105° C., 24 hours; for decomposition under light stress: Suntester xenon lamp, 22-24 hours. An excerpt: Solid stress stability data of the free base and of the corresponding monohydrochloride

The nature of series [2]: Solubility in physiologically acceptable solvents. The format is physicochemical.

Where a name gives a salt, the structure may show the parent alone.

On to `Cn1c(CNc2ccc(C(=N)N)cc2)nc2cc([C@@](C)(NCC(=O)O)C(=O)N3CCCC3)ccc21` [Free base, (R)-2-(4-Amidinophenylaminomethyl)-1-methyl-5-[1-(carboxymethylamino)-1-(pyrrolidinocarbonyl)-ethyl]-benzimidazole], for which, in series [1], the “decomposition under temperature and relative humidity stress” value is on record as “approx. 4%”; the “decomposition under temperature stress” value is “approx. 1%”; the “decomposition under light stress” value is recorded as “approx. 1%”.

In the case of `Cn1c(CNc2ccc(C(=N)N)cc2)nc2cc([C@@](C)(NCC(=O)O)C(=O)N3CCCC3)ccc21` [monohydrochloride, (R)-2-(4-Amidinophenylaminomethyl)-1-methyl-5-[1-(carboxymethylamino)-1-(pyrrolidinocarbonyl)-ethyl]-benzimidazole-monohydrochloride], the solubility entry in series [2] was “dissolves very easily”. In addition, in series [1], the “stability (general statement)” value is reported as “high degree of stability”; the “decomposition under temperature and relative humidity stress” value is given as “no decompo-”; the “decomposition under temperature stress” value was “no decompo-”; the “decomposition under light stress” value was “(<1%)”.
